Experiments:
[1] = test system: PFM male antennae; assay: Electroantennogram (EAG) analysis; set-up: species or system Grapholita funebrana; conditions: 20, 200 and 2000 μg doses
Method: (§1) Electroantennogram (EAG) equipment (Syntech, Hilversum, The Netherlands) was used to record the antennal responses of the OFM and PFM adults to Z8-12:Ac, E8-12:Ac, Z8-12:OH, Z8-14:Ac, and Z10-14:Ac. These sex pheromone compounds were diluted with liquid paraffin to prepare a stimulus solution of 100 μg/μL, which was subsequently diluted to 10 and 1 μg/μL. Antenna from 3-day-old OFM and 2- to 4-day-old PFM virgin males were excised at its base, with the distal part of the terminal segment being removed. Then, the treated antenna was attached to electrode holders with SpectraR360 conducting gel. A stimulus controller (model CS-55, Syntegon Technology, Waiblingen, Germany) continuously supplied a humidified air stream at a rate of 500 mL/min. Then, 20 μL of each stimulus solution was adsorbed onto a twice-folded filter paper strip (0.5 cm × 4 cm) placed on the wide section of a l mL pipette tip, which served as an odorant cartridge. Vapor stimuli were delivered by an air compressor into the constant air stream described above, flowing in a copper delivery tube (i.d. 8 mm) with the outlet positioned approximately 1 cm from the antenna. The EAG amplitude tests of the OFM and PFM males’ responses to sex pheromones started with solvent control stimuli (20 μL of liquid paraffin), followed by stimulation with 20, 200, and 2000 μg doses (20 μL of 1.0, 10.0, and 100.0 μg/μL of liquid paraffin solutions, respectively) of stimulus in sequence. The solvent control was performed at the end of the run. To control for variations among antennae, each sample was tested on 10 antennae of different males. The EAG signals and data were analyzed using EAG 2000 software (Syntech, Hilversum, The Netherlands). The corrected EAG amplitude value = absolute EAG amplitude value − (EAGck1 + EAGck2)/2, where EAGck1 and EAGck2 represent the absolute EAG amplitude values of the solvent control before and after measuring each stimulus, respectively. The relative EAG response of the OFM and PFM males to the same doses of sex pheromones were subjected to an analysis of independent sample t-test (p = 0.05) using SPSS version 23.0 (IBM).

[2] = test system: OFM males; assay: Field trapping with delta traps, pear orchard; format: in vivo, Grapholita molesta; conditions: for Inhibition Rate of OFM Males: vs 100:4:0
Method: (§2) To determine the inhibitory effects on OFM male adults and the impact on the trapping effects of PFM male adults, varying amounts of Z8-14:Ac (0, 5, 10, 25, 50, 75, 100, 125, 150 μg) or Z10-14:Ac (0, 25, 50, 100, 150, 250, 350, 450, and 550 μg) were added to rubber septa loaded with a constant dosage of the main pheromone (500 μg of Z8-12:Ac and 20 μg of E8-12:Ac) of the PFM. Trapping experiments of Z8-14:Ac were carried out in peach and pear orchards in Yan’an and Xinjiang (China), respectively. Trapping tests of Z10-14:Ac were performed in pear orchards in Xinjiang (China). Each orchard had nine plots, with three plots in one field. Each plot consisted of a linear arrangement of traps loaded with a constant dosage of the main pheromones and different percentages of the secondary pheromone Z8-14:Ac or Z10-14:Ac of the PFM. Plots in the same field were placed 30 m apart, and fields were ≥1 km apart. The traps were hung 1.4 m from the ground on a suspension bracket between two rows of peach or pear trees from 10 June to 25 July 2021 in Xinjiang and from 15 June to 30 July 2021 in Yan’an. The positions of the traps within the plot were randomly arranged. Every 5 days, counts were taken, and the traps were rotated to the adjacent position to avoid any potential position effects. The septa loaded with sex pheromone components were replaced with new ones after every 15 days of suspension. The data were analyzed using a one-way ANOVA, and the differences in the average trapping of OFM and PFM males using sex attractants containing different amounts of Z8-14:Ac or Z10-14:Ac were further analyzed using Tukey’s HSD test, both of which were performed using SPSS 23.0.

[3] = test system: OFM male antennae; assay: Electroantennogram (EAG) analysis; set-up: species or system Grapholita molesta
Method: as §1

[4] = test system: OFM males; assay: Field trapping with delta traps, peach orchard; format: in vivo, Grapholita molesta; conditions: for Inhibition Rate of OFM Males: vs 100:4:0
Method: as §2

[5] = test system: PFM males; assay: Field trapping with delta traps, pear orchard; format: in vivo, Grapholita funebrana
Method: as §2

[6] = pear orchard, Z8-12:Ac/E8-12:Ac/Z8-14:Ac 500/20/5 μg (100:4:1)
[7] = pear orchard, Z8-12:Ac/E8-12:Ac/Z8-14:Ac 500/20/10 μg (100:4:2)
[8] = pear orchard, Z8-12:Ac/E8-12:Ac/Z8-14:Ac 500/20/25 μg (100:4:5)
[9] = pear orchard, Z8-12:Ac/E8-12:Ac/Z8-14:Ac 500/20/50 μg (100:4:10)
[10] = pear orchard, Z8-12:Ac/E8-12:Ac/Z8-14:Ac 500/20/75 μg (100:4:15)
[11] = pear orchard, Z8-12:Ac/E8-12:Ac/Z8-14:Ac 500/20/100 μg (100:4:20)
[12] = pear orchard, Z8-12:Ac/E8-12:Ac/Z8-14:Ac 500/20/125 μg (100:4:25)
[13] = pear orchard, Z8-12:Ac/E8-12:Ac/Z8-14:Ac 500/20/150 μg (100:4:30)
[14] = peach orchard, Z8-12:Ac/E8-12:Ac/Z8-14:Ac 500/20/5 μg (100:4:1)
[15] = peach orchard, Z8-12:Ac/E8-12:Ac/Z8-14:Ac 500/20/10 μg (100:4:2)
[16] = peach orchard, Z8-12:Ac/E8-12:Ac/Z8-14:Ac 500/20/25 μg (100:4:5)
[17] = peach orchard, Z8-12:Ac/E8-12:Ac/Z8-14:Ac 500/20/50 μg (100:4:10)
[18] = peach orchard, Z8-12:Ac/E8-12:Ac/Z8-14:Ac 500/20/75 μg (100:4:15)
[19] = peach orchard, Z8-12:Ac/E8-12:Ac/Z8-14:Ac 500/20/100 μg (100:4:20)
[20] = peach orchard, Z8-12:Ac/E8-12:Ac/Z8-14:Ac 500/20/125 μg (100:4:25)
[21] = peach orchard, Z8-12:Ac/E8-12:Ac/Z8-14:Ac 500/20/150 μg (100:4:30)

## CCCCC/C=C\CCCCCCCOC(C)=O [Z8-14:Ac, (Z)-8-tetradecenyl acetate]
[1]
  EAG response of PFM males: moderate EAG response
[2]; field trials, varying ratios of Z8-14:Ac (1% to 30%) added to Z8-12:Ac and E8-12:Ac
  maximum reduction of the capture of OFM males: up to 96.54%
[2]; [6]
  Total OFM Males/Trap: 59.24 ± 10.14 b Males/Trap
  Inhibition Rate of OFM Males: 65.04%
[2]; [7]
  Total OFM Males/Trap: 61.31 ± 7.21 b Males/Trap
  Inhibition Rate of OFM Males: 63.82%
[2]; [8]
  Total OFM Males/Trap: 21.36 ± 6.22 c Males/Trap
  Inhibition Rate of OFM Males: 87.40%
[2]; [9]
  Total OFM Males/Trap: 12.05 ± 0.91 c Males/Trap
  Inhibition Rate of OFM Males: 92.89%
[2]; [10]
  Total OFM Males/Trap: 8.95 ± 2.69 c Males/Trap
  Inhibition Rate of OFM Males: 94.72%
[2]; [11]
  Total OFM Males/Trap: 12.74 ± 6.57 c Males/Trap
  Inhibition Rate of OFM Males: 92.48%
[2]; [12]
  Total OFM Males/Trap: 5.86 ± 1.50 c Males/Trap
  Inhibition Rate of OFM Males: 96.54%
[2]; [13]
  Total OFM Males/Trap: 10.33 ± 2.98 c Males/Trap
  Inhibition Rate of OFM Males: 93.90%
[2]; pear orchard, adding 5–30% of Z8-14:Ac to Z8-12:Ac and E8-12:Ac
  reduction of the number of OFM males caught: more than 86%
[2]; pear orchards, adding 1–2% of Z8-14:Ac to Z8-12:Ac and E8-12:Ac (100:4)
  reduction of the capture of OFM males: 63.82–65.04%
[3]; 20, 200 and 2000 μg
  EAG values of OFM males compared with PFM males: significantly higher than those of the PFM males
[3]; 20, 200 and 2000 μg doses
  EAG response of OFM males: moderate EAG response
[4]; [14]
  Total OFM Males/Trap: 46.08±3.25 b Males/Trap
  Inhibition Rate of OFM Males: 58.81%
[4]; [15]
  Total OFM Males/Trap: 40.89±2.35 b Males/Trap
  Inhibition Rate of OFM Males: 63.45%
[4]; [16]
  Total OFM Males/Trap: 14.82±1.47 c Males/Trap
  Inhibition Rate of OFM Males: 86.75%
[4]; [17]
  Total OFM Males/Trap: 9.04±1.08 c Males/Trap
  Inhibition Rate of OFM Males: 91.92%
[4]; [18]
  Total OFM Males/Trap: 9.55±1.09 c Males/Trap
  Inhibition Rate of OFM Males: 91.46%
[4]; [19]
  Total OFM Males/Trap: 9.67±1.52 c Males/Trap
  Inhibition Rate of OFM Males: 91.36%
[4]; [20]
  Total OFM Males/Trap: 6.86±0.24 c Males/Trap
  Inhibition Rate of OFM Males: 93.87%
[4]; [21]
  Total OFM Males/Trap: 7.96±1.19 c Males/Trap
  Inhibition Rate of OFM Males: 92.88%
[4]; peach orchard, adding 5–30% of Z8-14:Ac to Z8-12:Ac and E8-12:Ac
  reduction of the number of OFM males caught: more than 86%
[4]; peach orchards, adding 1–2% of Z8-14:Ac to Z8-12:Ac and E8-12:Ac (100:4)
  reduction of the capture of OFM males: 58.81–63.45%
[5]; Z8-12:Ac/E8-12:Ac/Z8-14:Ac 500/20/5 μg (100:4:1)
  Total PFM Males/Trap: 64.07 ± 6.89 a Males/Trap
[5]; Z8-12:Ac/E8-12:Ac/Z8-14:Ac 500/20/10 μg (100:4:2)
  Total PFM Males/Trap: 45.47 ± 6.64 a Males/Trap
[5]; Z8-12:Ac/E8-12:Ac/Z8-14:Ac 500/20/25 μg (100:4:5)
  Total PFM Males/Trap: 43.06 ± 0.34 a Males/Trap
[5]; Z8-12:Ac/E8-12:Ac/Z8-14:Ac 500/20/50 μg (100:4:10)
  Total PFM Males/Trap: 53.73 ± 7.04 a Males/Trap
[5]; Z8-12:Ac/E8-12:Ac/Z8-14:Ac 500/20/75 μg (100:4:15)
  Total PFM Males/Trap: 48.57 ± 6.31 a Males/Trap
[5]; Z8-12:Ac/E8-12:Ac/Z8-14:Ac 500/20/100 μg (100:4:20)
  Total PFM Males/Trap: 42.36 ± 8.46 a Males/Trap
[5]; Z8-12:Ac/E8-12:Ac/Z8-14:Ac 500/20/125 μg (100:4:25)
  Total PFM Males/Trap: 57.52 ± 21.06 a Males/Trap
[5]; Z8-12:Ac/E8-12:Ac/Z8-14:Ac 500/20/150 μg (100:4:30)
  Total PFM Males/Trap: 72.67 ± 12.44 a Males/Trap
[5]; adding 1–30% of Z8-14:Ac to the PFM sex attractants
  effect on the number of PFM males: neither significantly increased nor inhibited
